# Experimental data from PubChem BioAssay (NCI).
#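 Where inhibition never reached the appropriate level, the endpoint shown equals the highest concentration tested. Otherwise, values were interpolated linearly from a five-concentration, 48-hour dose response in 96-well plates. GI50 is the concentration that inhibits growth by half. TGI: concentration producing complete growth inhibition.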
# Key:
# Test in all cases: inhibition of tumour cell growth, NCI panel, 48 h
# RXF 393 renal = tested on: RXF 393 renal
# SNB-75 CNS = tested on: SNB-75 CNS
# 786-0 renal = tested on: 786-0 renal
# SK-MEL-5 melanoma = tested on: SK-MEL-5 melanoma
# OVCAR-8 ovarian = tested on: OVCAR-8 ovarian
# LOX IMVI melanoma = tested on: LOX IMVI melanoma
# KM12 colon = tested on: KM12 colon
# UACC-257 melanoma = tested on: UACC-257 melanoma
# MOLT-4 leukemia = tested on: MOLT-4 leukemia
# HOP-92 NSCLC = tested on: HOP-92 NSCLC
# MALME-3M melanoma = tested on: MALME-3M melanoma
# HCC-2998 colon = tested on: HCC-2998 colon
# TK-10 renal = tested on: TK-10 renal
# U251 CNS = tested on: U251 CNS
# HOP-62 NSCLC = tested on: HOP-62 NSCLC
# CAKI-1 renal = tested on: CAKI-1 renal
# OVCAR-5 ovarian = tested on: OVCAR-5 ovarian
# SF-539 CNS = tested on: SF-539 CNS
# NCI-H226 lung = tested on: NCI-H226 lung
# NCI/ADR-RES ovarian = tested on: NCI/ADR-RES ovarian
# MDA-MB-435 = tested on: MDA-MB-435
# SN12C renal = tested on: SN12C renal
# SNB-19 CNS = tested on: SNB-19 CNS
# NCI-H522 lung = tested on: NCI-H522 lung
# K-562 leukemia = tested on: K-562 leukemia
# MCF7 breast = tested on: MCF7 breast
# SW-620 colon = tested on: SW-620 colon
# A498 renal = tested on: A498 renal
# CCRF-CEM leukemia = tested on: CCRF-CEM leukemia
# HS 578T breast = tested on: HS 578T breast
structure (smiles),measurement,setting,value
COc1ccc(-c2nc(S(=O)(=O)c3ccc(C)cc3)c(S(=O)(=O)CC(=O)N(C)Cc3ccccc3)o2)cc1,GI50,RXF 393 renal,5.05 µM
same,TGI,RXF 393 renal,16.9 µM
same,GI50,SNB-75 CNS,4.82 µM
same,TGI,SNB-75 CNS,18.7 µM
same,GI50,786-0 renal,8.89 µM
same,TGI,786-0 renal,23 µM
same,GI50,SK-MEL-5 melanoma,14.3 µM
same,TGI,SK-MEL-5 melanoma,27.7 µM
same,GI50,OVCAR-8 ovarian,13.3 µM
same,TGI,OVCAR-8 ovarian,28.9 µM
same,GI50,LOX IMVI melanoma,2.79 µM
same,TGI,LOX IMVI melanoma,10.2 µM
same,GI50,KM12 colon,15.8 µM
same,TGI,KM12 colon,32.3 µM
same,GI50,UACC-257 melanoma,13.1 µM
same,TGI,UACC-257 melanoma,26.3 µM
same,GI50,MOLT-4 leukemia,4.73 µM
same,TGI,MOLT-4 leukemia,> 100 µM
same,GI50,HOP-92 NSCLC,14 µM
same,TGI,HOP-92 NSCLC,39.2 µM
same,GI50,MALME-3M melanoma,14.8 µM
same,TGI,MALME-3M melanoma,29.6 µM
same,GI50,HCC-2998 colon,13.3 µM
same,TGI,HCC-2998 colon,26.1 µM
same,GI50,TK-10 renal,13.2 µM
same,TGI,TK-10 renal,26.5 µM
same,GI50,U251 CNS,15.4 µM
same,TGI,U251 CNS,29.1 µM
same,GI50,HOP-62 NSCLC,16 µM
same,TGI,HOP-62 NSCLC,32.5 µM
same,GI50,CAKI-1 renal,5.76 µM
same,TGI,CAKI-1 renal,18.6 µM
same,GI50,OVCAR-5 ovarian,12.8 µM
same,TGI,OVCAR-5 ovarian,25.5 µM
same,GI50,SF-539 CNS,10.7 µM
same,TGI,SF-539 CNS,22.5 µM
same,GI50,NCI-H226 lung,14.8 µM
same,TGI,NCI-H226 lung,39.6 µM
same,GI50,NCI/ADR-RES ovarian,15.2 µM
same,TGI,NCI/ADR-RES ovarian,45.2 µM
same,GI50,MDA-MB-435,7.32 µM
same,TGI,MDA-MB-435,31.1 µM
same,GI50,SN12C renal,10.5 µM
same,TGI,SN12C renal,22.3 µM
same,GI50,SNB-19 CNS,14.4 µM
same,TGI,SNB-19 CNS,27.5 µM
same,GI50,NCI-H522 lung,2.19 µM
same,TGI,NCI-H522 lung,6.94 µM
same,GI50,K-562 leukemia,4.72 µM
same,TGI,K-562 leukemia,> 100 µM
same,GI50,MCF7 breast,3.89 µM
same,TGI,MCF7 breast,16.8 µM
same,GI50,SW-620 colon,4.25 µM
same,TGI,SW-620 colon,17.5 µM
same,GI50,A498 renal,13.5 µM
same,TGI,A498 renal,26.8 µM
same,GI50,CCRF-CEM leukemia,3.5 µM
same,TGI,CCRF-CEM leukemia,> 100 µM
same,GI50,HS 578T breast,4.85 µM
